Source: BigSolDB 2.1

c1ccc2c(c1)Cc1ccccc1-2
Settings | solubility (mole fraction)
in ethanol, 278.98 K | 0.00372
in ethanol, 283.99 K | 0.00455
in ethanol, 289.01 K | 0.00554
in ethanol, 294.08 K | 0.00668
in ethanol, 298.35 K | 0.00802
in ethanol, 303.36 K | 0.00973
in ethanol, 308.77 K | 0.0118
in ethanol, 313.17 K | 0.0139
in ethanol, 319.27 K | 0.0177
in ethanol, 324.95 K | 0.0216
in isopropanol, 288.28 K | 0.00221
in isopropanol, 293.69 K | 0.00313
in isopropanol, 299.5 K | 0.00453
in isopropanol, 303.17 K | 0.00565
in isopropanol, 309.06 K | 0.00802
in isopropanol, 313.78 K | 0.0105
in isopropanol, 318.24 K | 0.0135
in isopropanol, 323.17 K | 0.0179
in isopropanol, 328.25 K | 0.0237
in isopropanol, 333.45 K | 0.0314
in n-butanol, 284.27 K | 0.0059
in n-butanol, 288.82 K | 0.00724
in n-butanol, 293.76 K | 0.00906
in n-butanol, 298.88 K | 0.0113
in n-butanol, 304.06 K | 0.0139
in n-butanol, 308.28 K | 0.0168
in n-butanol, 313.93 K | 0.0212
in n-butanol, 318.16 K | 0.0251
in n-butanol, 323.16 K | 0.0304
in n-butanol, 328.25 K | 0.037
in n-butanol, 333.35 K | 0.0458
in n-butanol, 338.35 K | 0.0558
in toluene, 283.27 K | 0.0634
in toluene, 288.77 K | 0.0819
in toluene, 293.72 K | 0.102
in toluene, 298.89 K | 0.13
in toluene, 303.17 K | 0.154
in toluene, 308.81 K | 0.201
in toluene, 314.04 K | 0.252
in toluene, 319.01 K | 0.308
in toluene, 323.28 K | 0.367
